Numbered stars: 1 amine (or outer) side, 2 acyl side, 3 side chain; on linkers, the order of the positions; unused ones are H or OH. Bridge positions count the residues as written; N and C are the ends. Square brackets hold non-standard residues; d marks the D form. Peptide text beside a SMILES is read from it. * marks the point of attachment. Gly(Dodecyl) = CCCCCCCCCCCC[C@H](N)C(=O)O; X2 = CCCCCCCCCC[C@@H](N[*:1])C(=O)[*:2]; Stearoyl = CCCCCCCCCCCCCCCCCC(=O)*; Decanoyl = CCCCCCCCCC(=O)*; Dab = NCC[C@H](N)C(=O)O
Experiments:
[1] = Cytotoxicity, MTT reduction assay, COS-7 cells; assay type: cell-based; settings: African green monkey, COS-7 cells (CRL-1651), 12.5-50 μM
Procedure: (§1) Mouse pre-B cells were cultured in RPMI1640 plus 5% FBS, antibiotic/antimycotic, non essential amino acid, 50 μM β-mercaptoethanol and 1 mM natrium pyruvate. HELA cells were maintained in RPMI1640 plus 10% FBS, pen/strept and 2 mM L-glutamine. Cos-7 cells were grown in DMEM medium with […] glucose supplemented with 10% FCS, pen/strept and 2 mM L-glutamine. All cell lines were grown at 37° C. at 5% CO2. Cell media, media supplements, PBS-buffer, HEPES, antibiotic/antimycotic, pen/strept, non essential amino acid, L-glutamine, β-mercaptoethanol and sera were purchased from Gibco (Pailsey, UK). All fine chemicals were supplied by Merck (Darmstadt, Germany).
(§2) The cytotoxicity of the peptides to HELA cells (Acc57) and COS-7 cells (CRL-1651) was determined using the MTT reduction assay (T. Mossman, J. Immunol. Meth. 1983, 65, 55-63; M. V. Berridge, A. S. Tan, Arch. Biochem. Biophys. 1993, 303, 474-482). Briefly, the method was as follows: 4000 HELA cells/well and 3400 COS-7 cells/well were seeded and grown in 96-well microtiter plates for 24 h at 37° C. at 5% CO2. Thereafter, time zero (Tz) was determined by MTT reduction (see below). The supernatant of the remaining wells was discarded, and fresh medium and compounds in serial dilutions (12.5, 25 and 50 μM, triplicates) were pipetted into the wells. After incubation of the cells for 48 h at 37° C. at 5% CO2 the supernatant was discarded again and 100 μL MTT reagent (0.5 mg/mL in RPMI1640 and DMEM, respectively)/well was added. Following incubation at 37° C. for 2-4 h the media were aspirated and the cells were spiked (100 μL isopropanol/well). The absorbance of the solubilized formazan was measured at 595 nm (OD595peptide). For each concentration averages were calculated from triplicates. The percentage of growth was calculated as follows: (OD595peptide-OD595Tz-OD595Empty well)/(OD595Tz-OD595Empty well)×100%. The GI50 (Growth Inhibition) concentrations were calculated for each peptide by using a trend line function for the concentrations (50, 25, 12.5 and 0 μM), the corresponding percentages and the value 50, (=TREND (C50: C0, %50:%0,50).

[2] = Plasma stability in mouse plasma; assay type: in vitro ADME; settings: for half-life at 10 μM / mouse pl. T1/2: up to 1440 min; for half-life at 10 μM: read-out: mouse pl. T1/2
Procedure: (§3) Percent hemolysis was calculated as follows: (OD540peptide/OD540H2O)×100%. 2.6. Plasma Stability
(§4) The stability of the peptides in human and mouse plasma was determined by applying the following method: 346.5 μL/deep well of freshly thawed human plasma (Basler Blutspendedienst) and mouse plasma (Harlan Sera-Lab, UK), respectively, were spiked with 3.5 μL/well of compound dissolved in DMSO/H2O ([…] [v/v], 1 mM, triplicate) and incubated at 37° C. At t=0, 15, 30, 60, 120, 240 and 1440 min aliquots of 50 μL were transferred to filtration plate wells containing 150 μL/well of 2% formic acid in acetonitrile. Following shaking for 2 min the occurred suspensions were filtrated by vacuum and 50 μL of each filtrate was mixed with 100 μL of 1% formic acid in H2O. After transfer to a propylene microtiter plate, the filtrates were analyzed by LC/MS as follows: Column: Waters, XBridge C18, mobile phases: (A) water+0.1% formic acid and (B) acetonitrile/water, 95/5 (v/v)+0.1% formic acid, gradient: 5%-100% (B) in 2 minutes, electrospray ionization, MRM detection (triple quadrupole). The peak areas were determined and triplicate values are averaged. The stability is expressed in percent of the initial value at t=0. (tx/t0×100). By using the TREND function of EXCEL (Microsoft Office 2003) T1/2 were determined.

human CXCR4 = target: T1, human CXCR4 (Homo sapiens, UniProt P61073); assay: Ca2+-assay: CXCR4-antagonizing activity (SDF-1 induced calcium mobilization); assay type: cell-based; settings: mouse pre-B cell line 300-19 transfected with human CXCR4; SDF-1 induced Ca2+ mobilization; read-out: IC50% [nM] ± SD, CXCR4 receptor
T1 construct: expressed in transfected cells; host or cells: mouse pre-B cell line 300-19
Source text: 2.3. Ca^2+-Assay: CXCR4-Antagonizing Activity of the Peptides
Increases in intracellular calcium were monitored using a Flexstation 384 (Molecular Devices, Sunnyvale, Calif.) to assay the peptides for CXCR4 antagonism in a mouse pre-B cell line 300-19 stably transfected with human CXCR4 (E. Oberlin, A. Amara, F. Bachelerie, C. Bessia, J.-L. Virelizier, F. Arenzana-Seisdedos, O, Schwartz, J.-M. Heard, I. Clark-Lewis, D. F. Legler, M. Loetscher, M. Baggiolini, B. Moser, Nature 1996, 382, 833-835; M. Loetscher, T. Geiser, T. O'Reilly, R. Zwalen, M. Baggiolini, B. Moser, J. Biol. Chem. 1994, 269, 232-237; M. D'Apuuo, A. Rolink, M. Loetscher, J. A. Hoxie, I. Clark-Lewis, F. Melchors, M. Baggiolini, B. Moser, Eur. J. Immunol. 1997, 27, 1788-1793). The cells were batch loaded with the Calcium 4 Assay kit (Molecular Devices) in assay buffer (Hanks Balanced salt solution [HBSS], 20 mM HEPES, pH 7.4, 0.1% BSA) for 1 h at room temperature and labeled cells were dispensed into black well assays plates (Costar No. 3603). Calcium mobilization induced by stromal-derived factor-1 (SDF-1) was measured in the Flexstation 384 (excitation: 485 nm; emission: 525 nm) for 90 seconds. Antagonist activity of peptides was determined by spiking the cells with compounds prior to SDF-1 addition. Dose response curves (compound concentration versus % maximum response for SDF-1) were determined for each antagonist and IC50 values were calculated by fitting the data to a four parameter logistic equation using SoftmaxPro 4.8 (Molecular Devices).

[3] = tested on: human red blood cells (hRBC); assay: Hemolysis of human red blood cells; assay type: cell-based; settings: 20% hRBC, 1 h, 37° C.
Procedure: The peptides were tested for their hemolytic activity against human red blood cells (hRBC). Fresh hRBC were washed three times with phosphate buffered saline (PBS) and centrifuged for 10 min at 2000×g. Compounds (100 μM) were incubated with 20% hRBC (v/v) for 1 h at 37° C. and shaking at 300 rpm. The final erythrocyte concentration was approximately 0.9×10^9 cells/mL. A value of 0% and 100% cell lyses, respectively, was determined by incubation of hRBC in the presence of PBS containing 0.001% acetic acid and 2.5% Triton X-100 in H2O, respectively. The samples were centrifuged, the supernatants were 8-fold diluted in PBS buffer and the optical densities (OD) were measured at 540 nm. The 100% lyses value (OD540H2O) gave an OD540 of approximately 0.5-1.0.
as §3

[4] = Cytotoxicity, MTT reduction assay, HELA cells; assay type: cell-based; settings: human, HELA cells (Acc57), 12.5-50 μM
Procedure: as §1, §2

[5] = Plasma stability in human plasma; assay type: in vitro ADME
Procedure: as §3, §4

[6] = mouse plasma, 37° C., 1440 min, read-out: mouse pl. cpd left at 1440 min
[7] = human plasma, 37° C., 1440 min, read-out: human pl. cpd left at 1440 min
[8] = human plasma, 37° C., up to 1440 min

T1 sequence (P61073 whole entry): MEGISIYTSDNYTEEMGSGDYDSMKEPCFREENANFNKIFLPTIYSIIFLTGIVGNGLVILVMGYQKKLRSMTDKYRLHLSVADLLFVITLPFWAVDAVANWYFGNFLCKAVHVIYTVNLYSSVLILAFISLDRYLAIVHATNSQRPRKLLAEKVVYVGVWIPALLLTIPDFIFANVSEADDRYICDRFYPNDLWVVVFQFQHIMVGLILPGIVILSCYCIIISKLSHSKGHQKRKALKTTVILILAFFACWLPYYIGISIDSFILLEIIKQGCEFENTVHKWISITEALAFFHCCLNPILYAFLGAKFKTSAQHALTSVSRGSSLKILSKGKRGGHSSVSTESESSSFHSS

Row | SMILES | GI50 at 48 h [1] [µM] | half-life at 10 μM ([2]; mouse plasma, 37° C.) [h] | remaining at 24 h, 10 μM ([2]; mouse, plasma) [%] | IC50 (human CXCR4) [nM] | Hemolysis at 100 μM [3] [%] | GI50 at 48 h [4] [µM] | half-life at 10 μM ([5]; human plasma, 37° C., up to 1440 min, read-out: human pl. T1/2) [h] | remaining at 24 h, 10 μM ([5]; human, plasma) [%] | remaining at 24 h, 10 μM [2, 6] [%] | mouse pl. T1/2 ([2]; mouse plasma, 37° C.) [h] | remaining at 24 h, 10 μM [5, 7] [%] | human pl. T1/2 [5, 8] [h]
1 | CCCCCCCCCC(=O)NCCCC[C@@H]1NC(=O)[C@H](Cc2ccc(O)cc2)NC(=O)[C@@H]2CSSC[C@H](NC(=O)[C@H]([C@@H](C)O)NC(=O)[C@H](Cc3c[nH]cn3)NC(=O)[C@H](Cc3ccc(O)cc3)NC(=O)[C@@H]3CCCN3C(=O)[C@@H](Cc3ccc(O)cc3)NC(=O)[C@H](CCCCN)NC1=O)C(=O)N[C@@H](CCCNC(=N)N)C(=O)N[C@@H](C)C(=O)N1CCC[C@@H]1C(=O)N[C@@H](CCN)C(=O)N[C@@H](CCCNC(=N)N)C(=O)N[C@@H](Cc1ccc(O)cc1)C(=O)N2 [Ex. 16] (cyclo(YHTCRA[dP][Dab]RYCYK(Decanoyl)K[dY]P); disulfide 4-11) | > 50 | 10.3 | 35 | 18.2 ± 11 | 0.5 | > 50 | 19.9 | 48 | – | – | – | –
2 | CCCCCCCCCCCCCCCCCC(=O)NCCCC[C@@H]1NC(=O)[C@H](Cc2ccc(O)cc2)NC(=O)[C@@H]2CSSC[C@H](NC(=O)[C@H](Cc3ccc(O)cc3)NC(=O)[C@H](Cc3c[nH]cn3)NC(=O)[C@H](Cc3ccc(O)cc3)NC(=O)[C@@H]3CCCN3C(=O)[C@H]3CCCN3C(=O)[C@H](CCCCN)NC1=O)C(=O)N[C@@H](CO)C(=O)N[C@@H](C)C(=O)N1CCC[C@@H]1C(=O)N[C@@H](CCN)C(=O)N[C@@H](CCCNC(=N)N)C(=O)N[C@@H](Cc1ccc(O)cc1)C(=O)N2 [Ex. 22] (cyclo(YHYCSA[dP][Dab]RYCYK(Stearoyl)K[dP]P); disulfide 4-11) | > 50 | – | – | 7.3 ± 3 | 9.6 | > 35 | – | – | 82 | 24 | 72 | 24
3 | CCCCCCCCCC[C@H]1NC(=O)[C@H](Cc2ccc(O)cc2)NC(=O)[C@@H]2CSSC[C@H](NC(=O)[C@H](C)NC(=O)[C@H](Cc3c[nH]cn3)NC(=O)[C@H](Cc3ccc(O)cc3)NC(=O)[C@@H]3CCCN3C(=O)[C@H]3CCCN3C(=O)[C@H](CCCCN)NC1=O)C(=O)N[C@@H](CCCNC(=N)N)C(=O)N[C@@H](C)C(=O)N1CCC[C@@H]1C(=O)N[C@@H](CCN)C(=O)N[C@@H](CCCNC(=N)N)C(=O)N[C@@H](Cc1ccc(O)cc1)C(=O)N2 [Ex. 9] (cyclo(YHACRA[dP][Dab]RYCY[X2]K[dP]P); disulfide 4-11) | > 50 | – | – | 91.3 ± 19 | 2.2 | > 13 | – | – | 76 | 24 | 100 | 24
4 | CCCCCCCCCC(=O)NCCCC[C@@H]1NC(=O)[C@H](Cc2ccc(O)cc2)NC(=O)[C@@H]2CSSC[C@H](NC(=O)[C@H]([C@@H](C)O)NC(=O)[C@H](Cc3c[nH]cn3)NC(=O)[C@H](Cc3ccc(O)cc3)NC(=O)[C@@H]3CCCN3C(=O)[C@H]3CCCN3C(=O)[C@H](CCCCN)NC1=O)C(=O)N[C@@H](CCCNC(=N)N)C(=O)N[C@@H](C)C(=O)N[C@H](Cc1ccc(O)cc1)C(=O)N[C@@H](CCN)C(=O)N[C@@H](CCCNC(=N)N)C(=O)N[C@@H](Cc1ccc(O)cc1)C(=O)N2 [Ex. 14] (cyclo(YHTCRA[dY][Dab]RYCYK(Decanoyl)K[dP]P); disulfide 4-11) | > 50 | 9.42 | – | 40.8 ± 12 | 0.6 | > 50 | – | – | 23 | – | 91 | 24
5 | CCCCCCCCCCCC[C@@H]1NC(=O)[C@H](Cc2c[nH]cn2)NC(=O)[C@H](Cc2ccc(O)cc2)NC(=O)[C@@H]2CCCN2C(=O)[C@H]2CCCN2C(=O)[C@H](CCCCN)NC(=O)[C@H](CCC(N)=O)NC(=O)[C@H](Cc2ccc(O)cc2)NC(=O)[C@@H]2CSSC[C@H](NC1=O)C(=O)N[C@@H](CCCNC(=N)N)C(=O)N[C@@H](C)C(=O)N1CCC[C@@H]1C(=O)N[C@@H](CCN)C(=O)N[C@@H](CCCNC(=N)N)C(=O)N[C@@H](Cc1ccc(O)cc1)C(=O)N2 [Ex. 2] (cyclo(YH[Gly(Dodecyl)]CRA[dP][Dab]RYCYQK[dP]P); disulfide 4-11) | > 32 | 23.4 | – | 55.8 ± 6 | 1.7 | > 13 | – | – | 62 | – | 96 | 24

Reference: US8716242B2, “β-hairpin peptidomimetics” (priority 2009, dated 2014)
